Assay results reported in patent publication US10501434B2, “Configurational stereoisomer of difethialone, composition and rodenticidal bait comprising same, and process for controlling target rodent pests” (priority 2015, dated 2019).

Type: in vivo, rat
Conditions: liver of rats which died between D9 and D10 after consuming the 11.8 ppm bait
Protocol: The acetonitrile solution containing difethialone is analysed by high-pressure liquid chromatography on a LUX® Cellulose-3 chiral column (Phenomenex, Le Pecq, France) (150×2 mm, particle size of 3 μm) as described in point A2) above.
The values, expressed as micrograms of laevorotatory enantiomer of said hetero-stereoisomer (“DFN-Hetero-laevo”) per gram of liver, are given in table 3 below.

Structure (SMILES): O=c1sc2ccccc2c(O)c1C1CC(c2ccc(-c3ccc(Br)cc3)cc2)Cc2ccccc21 (stereo not shown) [Total difethialone, 3-(4′-bromobiphenyl-4-yl)-1-(4-hydroxythiocoumarin-3-yl)-1,2,3,4-tetrahydronaphthalene]
- Hepatic content, Mean: 11.3 µg/g
